For one assay, the system named is AR, ERα, GR and PR. Nature of the assay: selectivity assays GAL4-AR, GAL4-ERα, GAL4-GR and GAL4-PR, antagonist mode. Format: cell-based. As to conditions: antagonist activity against MR compared to AR. As for the experimental part:
In certain cases, compounds were also evaluated for activity in selectivity assays with other steroid hormone receptor members, including AR, ER, GR and PR, as well as GAL4 alone. Steroid receptors used for selectivity assays were essentially generated as described above for pCMX-GAL4-MR, and comprised the LBD and a portion of the hinge region of the nuclear receptor of interest cloned in frame into the vector pCMX-GAL4 (Perlmann et al., 1993,Genes & Development 7:1411-1422) as described above.
Assays run in antagonist mode included agonists as follows: AR; 25 nM dihydrotestosterone (DHT), ER; 4.5 nM estradiol, GR; 20 nM dexamethasone, and PR; 2 nM medroxyprogesterone (MPA), respectively. Assays run in agonist mode contained no supplemental compounds.
(§1) The following table provides in vitro MR activity data of representative compounds described in the Examples. […] The “+” mark under the selectivity column is given to those compounds having greater than ten-fold antagonist activity against MR compared to at least one nuclear receptor selected from AR, ERα, GR and PR, as determined from the GAL4-AR, GAL4-ERα, GAL4-GR and GAL4-PR assays. The “++” mark under the selectivity column identifies those compounds having greater than ten-fold antagonist activity against MR compared to the four nuclear receptors AR, ERα, GR and PR, as determined from the GAL4-AR, GAL4-ERα, GAL4-GR and GAL4-PR assays.

The target in the next assay is T1, human MR (Homo sapiens, UniProt P08235).
T1 construct: expressed in transfected cells; host or cells: CV-1 (African Green Monkey Kidney Cells), transiently transfected with pCMX-GAL4-MR
T1 sequence (P08235 671-984): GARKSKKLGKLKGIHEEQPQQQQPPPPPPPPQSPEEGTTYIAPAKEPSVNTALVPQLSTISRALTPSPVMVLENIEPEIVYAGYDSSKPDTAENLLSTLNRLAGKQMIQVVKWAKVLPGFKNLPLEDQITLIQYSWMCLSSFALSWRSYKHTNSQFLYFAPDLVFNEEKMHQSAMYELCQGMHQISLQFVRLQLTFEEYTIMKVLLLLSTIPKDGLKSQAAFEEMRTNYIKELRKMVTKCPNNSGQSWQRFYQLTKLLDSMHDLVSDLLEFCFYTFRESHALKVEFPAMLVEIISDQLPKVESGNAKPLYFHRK
Nature of the assay: GAL4-MR cell based assay, antagonist format. As for the experimental part:
Compound activity was determined in a cell-based assay using a GAL4-MR chimera to identify compounds with the ability to modulate MR activity.
The pCMX-GAL4-MR expression plasmid was constructed by cloning nucleotides encoding amino acids 671 to 984 of human MR (see GenBank sequence AAA59571) into the vector pCMX-GAL4 (Perlmann et al., 1993,Genes & Development 7:1411-1422) comprising nucleotides encoding for amino acids 1-147 of the GAL4 DNA binding domain.
The TK-MH 100x4-Luc (GAL4UAS-TK-Luciferase) reporter construct was constructed by insertion of four copies of the Gal4 UAS (Kang et al. 1993, J. Biol. Chem. 268:9629-9635) into the Hind III site of TK-Luc. The parental plasmid, TK-Luc, was prepared by insertion of the Herpes simplex virus thymidine kinase gene promoter (−105 to +51) obtained from the plasmid pBLCAT2 by digestion with HindIII and XhoI (described in Luckow et al., 1987, Nuc. Acid. Res. 15:5490) into the plasmid MMTV-LUC described by Hollenberg and Evans, 1988, Cell 55:899-906) after removal of MMTV-LTR promoter sequence from MMTV-LUC via digestion with HindIII and XhoI. Correct cloning was confirmed by restriction digestion and/or sequencing.
Assays were performed using CV-1 (African Green Monkey Kidney Cells) (ATCC) cells grown in T175 flasks at a density of 3×10^6 cells/flask in DMEM with 5% FBS. Cells were transfected one day after plating at 70-80 percent confluency with a DNA mixture containing (per T175 flask) 9 […] pCMX-GAL4-MR, 9 μg TK-MH100x4-Luc, and 2 μg pCMX β-Gal using the transfection reagent FuGENE6 (Roche Molecular Biochemicals, Indianapolis, Ind.) following recommended protocols and instructions provided by the manufacturer, and incubated with transfection reagents for 5 hours at 37° C.
Transfected cells were trypsinized, resuspended in media, and 45 μL was added to assay plates at a density of approximately 5,000 cells/well using a MultiDrop dispenser (MTX Lab Systems, Inc., VA). The assay plates containing both compounds and screening cells were incubated for approximately 20 hours at 37° C. and 5% CO2 in a tissue culture incubator.
After incubation of the transfected cells with compounds, Lysis buffer (1% Triton X-100, 10% Glycerol, 5 mM DTT, 1 mM EGTA, 25 mM Tricine, pH 7.8) and Luciferin assay buffer (0.73 mM ATP, 22.3 mM Tricine, 0.11 mM EDTA, 33.3 mM DTT, 0.2M MgSO4, 11 mM Luciferin, 6.1 mM Coenzyme A, 0.01 mM HEPES, pH 7.8) were prepared. Media was removed from the plates and lysis buffer and luciferin assay buffer mixed in a 1:1 ratio and then 30 μl of the mixture was added to each well using a Multidrop dispenser. Plates were read on the Northstar (Applied Biosystems, Foster City, Calif.) and data was analyzed using ActivityBase (ID Business Solutions, Ltd., Guildford, Surrey, UK). If required, luciferase values may be normalized for transfection efficiency by measuring β-galactosidase activity based on expression from the pCMX-βGal expression plasmid as described previously (Willy et al., 1995, Gene & Development, 9:1033-1045).
as §1

Molecules are shown by their SMILES.

For orientation: IC50 means the midpoint of a concentration-inhibition curve. Regarding `Cc1nc(C(=O)Nc2ccc(S(C)(=O)=O)cc2)n(C)c1-c1ccccc1Oc1ccccc1` [1,4-dimethyl-5-(2-phenoxy-phenyl)-1H-imidazole-2-carboxylic acid (4-methanesulfonyl-phenyl)-amide], in the assay with AR, ERα, GR and PR, the Selectivity entry is “++ (greater than ten-fold antagonist activity against MR compared to the four nuclear receptors AR, ERα, GR and PR)”. This compound also returned an IC50 on human MR below 500 nM.

`Cc1cc(C(=O)Nc2ccc(NS(C)(=O)=O)cc2)c(C)n1-c1ccccc1C(F)(F)F` [2,5-dimethyl-1-(2-trifluoromethyl-phenyl)-1H-pyrrole-3-carboxylic acid (4-methanesulfonylamino-phenyl)-amide]: in the assay on AR, ERα, GR and PR, the Selectivity entry was “+ (greater than ten-fold antagonist activity against MR compared to at least one nuclear receptor selected from AR, ERα, GR and PR)”. The IC50 at human MR lay within 500 to 1000 nM.

`Cc1cc(C(=O)Nc2ccc3ccccc3c2)c(C)n1-c1ccccc1C(F)(F)F` [2,5-Dimethyl-1-(2-trifluoromethyl-phenyl)-1H-pyrrole-3-carboxylic acid naphthalen-2-ylamide]: the IC50 on human MR was below 500 nM.

On to `Cc1cc(C(=O)Nc2ccc(S(C)(=O)=O)cc2)c(C)n1-c1ccccc1C(=O)Nc1cccc([N+](=O)[O-])c1` [2,5-Dimethyl-1-[2-(3-nitro-phenylcarbamoyl)-phenyl]-1H-pyrrole-3-carboxylic acid (4-methanesulfonyl-phenyl)-amide], for which the Selectivity result with AR, ERα, GR and PR was “+ (greater than ten-fold antagonist activity against MR compared to at least one nuclear receptor selected from AR, ERα, GR and PR)”. The IC50 against human MR lay within 500 to 1000 nM.

Consider `Cc1cc(C(=O)Nc2ccc(S(=O)(=O)C(C)C)cc2)c(C)n1-c1ccccc1C(F)(F)F` [2,5-dimethyl-1-(2-trifluoromethyl-phenyl)-1H-pyrrole-3-carboxylic acid [4-(propane-2-sulfonyl)-phenyl]-amide], for which, in the assay with AR, ERα, GR and PR, the Selectivity result is “+ (greater than ten-fold antagonist activity against MR compared to at least one nuclear receptor selected from AR, ERα, GR and PR)”. Besides, the IC50 on human MR was in the range of 500 to 1000 nM.

As to `Cc1c(C(=O)Nc2ccc(S(C)(=O)=O)cc2)cc(-c2ccc(F)cc2)n1-c1ccccc1C(F)(F)F` [5-(4-fluorophenyl)-2-methyl-1-(2-trifluoromethylphenyl)-1H-pyrrole-3-carboxylic acid (4-methanesulfonyl-phenyl) amide], the Selectivity entry with AR, ERα, GR and PR is “++ (greater than ten-fold antagonist activity against MR compared to the four nuclear receptors AR, ERα, GR and PR)”. This compound also displayed an IC50 against human MR below 500 nM.

`Cc1ccc(NC(=O)c2cc(C)n(-c3ccccc3C(F)(F)F)c2C)cc1Cl` [2,5-Dimethyl-1-(2-trifluoromethyl-phenyl)-1H-pyrrole-3-carboxylic acid (3-chloro-4-methyl-phenyl)-amide] showed an IC50 at human MR below 500 nM.

On human MR, `Cc1c(C(=O)Nc2ccc(S(C)(=O)=O)cc2)ncn1-c1ccccc1C(F)(F)F` [5-methyl-1-(2-trifluoromethyl-phenyl)-1H-imidazole-4-carboxylic acid (4-methanesulfonyl-phenyl)-amide] gave an IC50 of 1000 to 5000 nM.

With `Cc1ccc(NC(=O)c2cc(C)n(-c3ccccc3C(F)(F)F)c2C)cc1F` [2,5-Dimethyl-1-(2-trifluoromethyl-phenyl)-1H-pyrrole-3-carboxylic acid (3-fluoro-4-methyl-phenyl)-amide], the IC50 at human MR is 500 to 1000 nM.

Regarding `Cc1sc(C(=O)Nc2ccc(S(C)(=O)=O)cc2)c(C)c1-c1ccccc1C(F)(F)F` [3,5-dimethyl-4-(2-trifluoromethyl-phenyl)-thiophene-2-carboxylic acid (4-methanesulfonyl-phenyl)-amide], at human MR, the 50% inhibitory concentration (IC50) was in the range of 500 to 1000 nM.

Compound `Cc1cnc(NC(=O)c2cc(C)n(-c3ccccc3C(F)(F)F)c2C)s1` [2,5-Dimethyl-1-(2-trifluoromethyl-phenyl)-1H-pyrrole-3-carboxylic acid (5-methyl-thiazol-2-yl)-amide] returned an IC50 at human MR below 500 nM.
